Measured values taken from ChEMBL document CHEMBL1130894, “Discovery of a novel benzyloxyisoquinoline derivative with potent anti-Helicobacter pylori activity” (1998).
Converted amounts (≈) assume the structure as drawn.

What was measured:
Format in all cases: functional
Helicobacter pylori [1] = assay: Antibacterial activity was evaluated against Helicobacter pylori (13001).
Helicobacter pylori [2] = assay: Antibacterial activity was evaluated against Helicobacter pylori (8007).
Helicobacter pylori [3] = assay: Antibacterial activity was evaluated against Helicobacter pylori (9005).
Helicobacter pylori [4] = assay: Antibacterial activity was evaluated against Helicobacter pylori (FP1757).
Escherichia coli = assay: Antibacterial activity was evaluated against Escherichia coli (NIHJ JC-2)
Enterococcus faecalis = assay: Antibacterial activity was evaluated against Enterococcus faecalis (0115)
Moraxella catarrhalis = assay: Antibacterial activity was evaluated against M.(B).catarrhalis (6014)
Serratia marcescens = assay: Antibacterial activity was evaluated against Serratia marcescens (3013)
Staphylococcus aureus = assay: Antibacterial activity was evaluated against Staphylococcus aureus (209P JC-1)

Structure (SMILES) | MIC (Helicobacter pylori [1]) [µg/mL] | MIC (Helicobacter pylori [2]) [µg/mL] | MIC (Helicobacter pylori [3]) [µg/mL] | MIC (Helicobacter pylori [4]) [µg/mL] | MIC (Escherichia coli) [µg/mL] | MIC (Enterococcus faecalis) [µg/mL] | MIC (Moraxella catarrhalis) [µg/mL] | MIC (Serratia marcescens) [µg/mL] | MIC (Staphylococcus aureus) [µg/mL]
CC(=O)Nc1cc(Cl)cc(COc2cccc3cnccc23)c1Cl | 0.2 (≈ 0.554 µM) | 0.39 (≈ 1.08 µM) | 0.39 (≈ 1.08 µM) | 0.39 (≈ 1.08 µM) |  |  |  |  | 
Oc1cccc2cnccc12 | 25 (≈ 172 µM) | 25 (≈ 172 µM) | 50 (≈ 344 µM) | 50 (≈ 344 µM) |  |  |  |  | 
Nc1ccc(Cl)c(COc2cccc3cnccc23)c1 | 0.39 (≈ 1.37 µM) | 0.39 (≈ 1.37 µM) | 0.39 (≈ 1.37 µM) | 0.39 (≈ 1.37 µM) |  |  |  |  | 
Nc1cccc(COc2cccc3cnccc23)c1 | 0.78 (≈ 3.12 µM) | 1.56 (≈ 6.23 µM) | 1.56 (≈ 6.23 µM) | 1.56 (≈ 6.23 µM) |  |  |  |  | 
CC(=O)Nc1cccc(COc2cccc3cnccc23)c1 | 0.78 (≈ 2.67 µM) | 0.78 (≈ 2.67 µM) | 0.78 (≈ 2.67 µM) | 1.56 (≈ 5.34 µM) |  |  |  |  | 
CC1(C)S[C@@H]2[C@H](NC(=O)[C@H](N)c3ccc(O)cc3)C(=O)N2[C@H]1C(=O)O [AMOXICILLIN] | 0.025 (≈ 0.0684 µM) | 0.1 (≈ 0.274 µM) | 0.1 (≈ 0.274 µM) | 0.025 (≈ 0.0684 µM) | 3.13 (≈ 8.57 µM) | 0.39 (≈ 1.07 µM) | 0.39 (≈ 1.07 µM) | > 100 | 0.05 (≈ 0.137 µM)
c1ccc(COc2cccc3cnccc23)cc1 | 0.78 (≈ 3.32 µM) | 1.56 (≈ 6.63 µM) | 1.56 (≈ 6.63 µM) | 1.56 (≈ 6.63 µM) |  |  |  |  | 
c1cc(OCc2cccc3nonc23)c2ccncc2c1 | 0.2 (≈ 0.721 µM) | 0.39 (≈ 1.41 µM) | 0.78 (≈ 2.81 µM) | 0.78 (≈ 2.81 µM) |  |  |  |  | 
CC[C@H]1OC(=O)[C@H](C)[C@@H](O[C@H]2C[C@@](C)(OC)[C@@H](O)[C@H](C)O2)[C@H](C)[C@@H](O[C@@H]2O[C@H](C)C[C@H](N(C)C)[C@H]2O)[C@](C)(OC)C[C@@H](C)C(=O)[C@H](C)[C@@H](O)[C@]1(C)O [CLARITHROMYCIN] | 0.05 (≈ 0.0668 µM) | 0.05 (≈ 0.0668 µM) | 0.1 (≈ 0.134 µM) | 0.05 (≈ 0.0668 µM) | 100 (≈ 134 µM) | 0.2 (≈ 0.267 µM) | < 0.025 | 100 (≈ 134 µM) | 0.1 (≈ 0.134 µM)
CC(=O)Nc1cccc(COc2cccc3cnccc23)c1Cl | 0.39 (≈ 1.19 µM) | 0.39 (≈ 1.19 µM) | 0.39 (≈ 1.19 µM) | 0.39 (≈ 1.19 µM) |  |  |  |  | 
Nc1cccc(COc2cccc3cnccc23)c1Cl | 0.2 (≈ 0.702 µM) | 0.39 (≈ 1.37 µM) | 0.39 (≈ 1.37 µM) | 0.78 (≈ 2.74 µM) |  |  |  |  | 

The remaining lines, values ahead:

MIC (Helicobacter pylori [1]) [µg/mL] | MIC (Helicobacter pylori [2]) [µg/mL] | MIC (Helicobacter pylori [3]) [µg/mL] | MIC (Helicobacter pylori [4]) [µg/mL] | MIC (Escherichia coli) [µg/mL] | MIC (Enterococcus faecalis) [µg/mL] | MIC (Moraxella catarrhalis) [µg/mL] | MIC (Serratia marcescens) [µg/mL] | MIC (Staphylococcus aureus) [µg/mL] | Structure (SMILES)
0.78 (≈ 2.39 µM) | 0.78 (≈ 2.39 µM) | 0.78 (≈ 2.39 µM) | 1.56 (≈ 4.77 µM) |  |  |  |  |  | CC(=O)Nc1ccc(Cl)c(COc2cccc3cnccc23)c1
≥ 12.5 | ≥ 12.5 | ≥ 12.5 | ≥ 12.5 |  |  |  |  |  | CC(=O)Nc1c(Cl)ccc(Cl)c1COc1cccc2cnccc12
0.78 (≈ 2.56 µM) | 0.78 (≈ 2.56 µM) | 1.56 (≈ 5.13 µM) | 0.78 (≈ 2.56 µM) |  |  |  |  |  | Clc1cccc(Cl)c1COc1cccc2cnccc12
0.78 (≈ 2.44 µM) | 0.78 (≈ 2.44 µM) | 0.78 (≈ 2.44 µM) | 0.78 (≈ 2.44 µM) |  |  |  |  |  | Nc1ccc(Cl)c(COc2cccc3cnccc23)c1Cl
0.025 (≈ 0.0692 µM) | 0.025 (≈ 0.0692 µM) | 0.05 (≈ 0.138 µM) | 0.0125 (≈ 0.0346 µM) | > 100 | > 100 | > 100 | > 100 | > 100 | CC(=O)Nc1ccc(Cl)c(COc2cccc3cnccc23)c1Cl
1.56 (≈ 4.47 µM) | 1.56 (≈ 4.47 µM) | 1.56 (≈ 4.47 µM) | 1.56 (≈ 4.47 µM) |  |  |  |  |  | O=[N+]([O-])c1ccc(Cl)c(COc2cccc3cnccc23)c1Cl
